Data reported in patent US20090227575A1, “7H-PYRROLO[2,3-H]QUINAZOLINE COMPOUNDS, THEIR USE AS mTOR KINASE AND PI3 KINASE INHIBITORS, AND THEIR [sequence]” (Wyeth, priority 2008, published 2009).
Like-named read-outs stand apart in the source and are kept apart here.

Key:
Assay type in all cases: biochemical
human SMG-1 (hSMG-1) = human SMG-1 (hSMG-1) (Homo sapiens, UniProt Q96Q15); assay: hSMG-1 kinase assay (DELFIA); settings: read-out: hSMG1 IC50
Human mTOR = Human mTOR (Homo sapiens, UniProt P42345); assay: mTOR kinase assay (DELFIA format, purified enzyme); design: FLAG
PI3K-alpha = PI3K-alpha (Homo sapiens, UniProt P42336); assay: PI3K-alpha fluorescence polarization assay; settings: read-out: PI3 Kinase α IC50
Procedure, shortened: (§1)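 Diluted enzyme and compound (1% DMSO) reacted with diC8 PIP2 and ATP substrate in 20 mM HEPES pH 7.5, 2 mM MgCl2, 0.05% CHAPS for 30–60 min. Stopped with EDTA buffer holding 10 nM TAMRA probe and 70 nM GST-GRP. FP (mP) read after 30–90 min against zero-time and no-enzyme controls.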

PI3K-gamma = PI3K-gamma (Homo sapiens, UniProt P48736); assay: PI3K-gamma fluorescence polarization assay; settings: read-out: PI3 Kinase γ IC50
Sequence of PI3K-gamma (P48736 whole entry, species assumed): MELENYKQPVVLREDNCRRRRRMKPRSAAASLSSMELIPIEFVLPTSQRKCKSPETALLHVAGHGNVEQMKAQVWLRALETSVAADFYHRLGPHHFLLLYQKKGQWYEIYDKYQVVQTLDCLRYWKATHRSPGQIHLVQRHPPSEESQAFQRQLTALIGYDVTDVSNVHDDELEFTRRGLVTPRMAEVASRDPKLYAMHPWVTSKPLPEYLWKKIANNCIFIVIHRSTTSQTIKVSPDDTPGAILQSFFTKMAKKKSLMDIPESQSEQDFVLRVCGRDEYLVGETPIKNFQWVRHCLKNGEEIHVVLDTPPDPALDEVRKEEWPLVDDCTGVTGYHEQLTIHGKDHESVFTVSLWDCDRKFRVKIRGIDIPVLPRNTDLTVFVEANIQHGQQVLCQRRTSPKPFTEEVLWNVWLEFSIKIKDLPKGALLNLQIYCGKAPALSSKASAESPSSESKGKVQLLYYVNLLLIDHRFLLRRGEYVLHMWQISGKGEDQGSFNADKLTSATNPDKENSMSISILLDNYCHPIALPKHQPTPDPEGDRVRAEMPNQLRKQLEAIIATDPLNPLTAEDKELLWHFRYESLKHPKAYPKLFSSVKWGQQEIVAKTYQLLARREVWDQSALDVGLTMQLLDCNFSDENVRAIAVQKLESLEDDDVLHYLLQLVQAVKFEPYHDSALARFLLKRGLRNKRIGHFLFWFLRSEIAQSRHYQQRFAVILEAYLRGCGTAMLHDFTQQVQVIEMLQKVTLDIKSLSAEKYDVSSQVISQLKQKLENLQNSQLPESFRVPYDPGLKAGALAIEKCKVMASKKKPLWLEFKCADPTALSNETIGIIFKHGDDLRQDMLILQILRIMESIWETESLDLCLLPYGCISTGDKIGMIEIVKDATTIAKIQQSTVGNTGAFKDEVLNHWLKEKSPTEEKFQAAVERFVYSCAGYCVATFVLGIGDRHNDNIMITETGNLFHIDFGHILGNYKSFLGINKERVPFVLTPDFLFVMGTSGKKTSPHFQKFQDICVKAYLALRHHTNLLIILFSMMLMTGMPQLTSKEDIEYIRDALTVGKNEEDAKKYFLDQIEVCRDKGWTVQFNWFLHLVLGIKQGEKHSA
Procedure, shortened: as §1

Sequence of human SMG-1 (hSMG-1) (Q96Q15 whole entry): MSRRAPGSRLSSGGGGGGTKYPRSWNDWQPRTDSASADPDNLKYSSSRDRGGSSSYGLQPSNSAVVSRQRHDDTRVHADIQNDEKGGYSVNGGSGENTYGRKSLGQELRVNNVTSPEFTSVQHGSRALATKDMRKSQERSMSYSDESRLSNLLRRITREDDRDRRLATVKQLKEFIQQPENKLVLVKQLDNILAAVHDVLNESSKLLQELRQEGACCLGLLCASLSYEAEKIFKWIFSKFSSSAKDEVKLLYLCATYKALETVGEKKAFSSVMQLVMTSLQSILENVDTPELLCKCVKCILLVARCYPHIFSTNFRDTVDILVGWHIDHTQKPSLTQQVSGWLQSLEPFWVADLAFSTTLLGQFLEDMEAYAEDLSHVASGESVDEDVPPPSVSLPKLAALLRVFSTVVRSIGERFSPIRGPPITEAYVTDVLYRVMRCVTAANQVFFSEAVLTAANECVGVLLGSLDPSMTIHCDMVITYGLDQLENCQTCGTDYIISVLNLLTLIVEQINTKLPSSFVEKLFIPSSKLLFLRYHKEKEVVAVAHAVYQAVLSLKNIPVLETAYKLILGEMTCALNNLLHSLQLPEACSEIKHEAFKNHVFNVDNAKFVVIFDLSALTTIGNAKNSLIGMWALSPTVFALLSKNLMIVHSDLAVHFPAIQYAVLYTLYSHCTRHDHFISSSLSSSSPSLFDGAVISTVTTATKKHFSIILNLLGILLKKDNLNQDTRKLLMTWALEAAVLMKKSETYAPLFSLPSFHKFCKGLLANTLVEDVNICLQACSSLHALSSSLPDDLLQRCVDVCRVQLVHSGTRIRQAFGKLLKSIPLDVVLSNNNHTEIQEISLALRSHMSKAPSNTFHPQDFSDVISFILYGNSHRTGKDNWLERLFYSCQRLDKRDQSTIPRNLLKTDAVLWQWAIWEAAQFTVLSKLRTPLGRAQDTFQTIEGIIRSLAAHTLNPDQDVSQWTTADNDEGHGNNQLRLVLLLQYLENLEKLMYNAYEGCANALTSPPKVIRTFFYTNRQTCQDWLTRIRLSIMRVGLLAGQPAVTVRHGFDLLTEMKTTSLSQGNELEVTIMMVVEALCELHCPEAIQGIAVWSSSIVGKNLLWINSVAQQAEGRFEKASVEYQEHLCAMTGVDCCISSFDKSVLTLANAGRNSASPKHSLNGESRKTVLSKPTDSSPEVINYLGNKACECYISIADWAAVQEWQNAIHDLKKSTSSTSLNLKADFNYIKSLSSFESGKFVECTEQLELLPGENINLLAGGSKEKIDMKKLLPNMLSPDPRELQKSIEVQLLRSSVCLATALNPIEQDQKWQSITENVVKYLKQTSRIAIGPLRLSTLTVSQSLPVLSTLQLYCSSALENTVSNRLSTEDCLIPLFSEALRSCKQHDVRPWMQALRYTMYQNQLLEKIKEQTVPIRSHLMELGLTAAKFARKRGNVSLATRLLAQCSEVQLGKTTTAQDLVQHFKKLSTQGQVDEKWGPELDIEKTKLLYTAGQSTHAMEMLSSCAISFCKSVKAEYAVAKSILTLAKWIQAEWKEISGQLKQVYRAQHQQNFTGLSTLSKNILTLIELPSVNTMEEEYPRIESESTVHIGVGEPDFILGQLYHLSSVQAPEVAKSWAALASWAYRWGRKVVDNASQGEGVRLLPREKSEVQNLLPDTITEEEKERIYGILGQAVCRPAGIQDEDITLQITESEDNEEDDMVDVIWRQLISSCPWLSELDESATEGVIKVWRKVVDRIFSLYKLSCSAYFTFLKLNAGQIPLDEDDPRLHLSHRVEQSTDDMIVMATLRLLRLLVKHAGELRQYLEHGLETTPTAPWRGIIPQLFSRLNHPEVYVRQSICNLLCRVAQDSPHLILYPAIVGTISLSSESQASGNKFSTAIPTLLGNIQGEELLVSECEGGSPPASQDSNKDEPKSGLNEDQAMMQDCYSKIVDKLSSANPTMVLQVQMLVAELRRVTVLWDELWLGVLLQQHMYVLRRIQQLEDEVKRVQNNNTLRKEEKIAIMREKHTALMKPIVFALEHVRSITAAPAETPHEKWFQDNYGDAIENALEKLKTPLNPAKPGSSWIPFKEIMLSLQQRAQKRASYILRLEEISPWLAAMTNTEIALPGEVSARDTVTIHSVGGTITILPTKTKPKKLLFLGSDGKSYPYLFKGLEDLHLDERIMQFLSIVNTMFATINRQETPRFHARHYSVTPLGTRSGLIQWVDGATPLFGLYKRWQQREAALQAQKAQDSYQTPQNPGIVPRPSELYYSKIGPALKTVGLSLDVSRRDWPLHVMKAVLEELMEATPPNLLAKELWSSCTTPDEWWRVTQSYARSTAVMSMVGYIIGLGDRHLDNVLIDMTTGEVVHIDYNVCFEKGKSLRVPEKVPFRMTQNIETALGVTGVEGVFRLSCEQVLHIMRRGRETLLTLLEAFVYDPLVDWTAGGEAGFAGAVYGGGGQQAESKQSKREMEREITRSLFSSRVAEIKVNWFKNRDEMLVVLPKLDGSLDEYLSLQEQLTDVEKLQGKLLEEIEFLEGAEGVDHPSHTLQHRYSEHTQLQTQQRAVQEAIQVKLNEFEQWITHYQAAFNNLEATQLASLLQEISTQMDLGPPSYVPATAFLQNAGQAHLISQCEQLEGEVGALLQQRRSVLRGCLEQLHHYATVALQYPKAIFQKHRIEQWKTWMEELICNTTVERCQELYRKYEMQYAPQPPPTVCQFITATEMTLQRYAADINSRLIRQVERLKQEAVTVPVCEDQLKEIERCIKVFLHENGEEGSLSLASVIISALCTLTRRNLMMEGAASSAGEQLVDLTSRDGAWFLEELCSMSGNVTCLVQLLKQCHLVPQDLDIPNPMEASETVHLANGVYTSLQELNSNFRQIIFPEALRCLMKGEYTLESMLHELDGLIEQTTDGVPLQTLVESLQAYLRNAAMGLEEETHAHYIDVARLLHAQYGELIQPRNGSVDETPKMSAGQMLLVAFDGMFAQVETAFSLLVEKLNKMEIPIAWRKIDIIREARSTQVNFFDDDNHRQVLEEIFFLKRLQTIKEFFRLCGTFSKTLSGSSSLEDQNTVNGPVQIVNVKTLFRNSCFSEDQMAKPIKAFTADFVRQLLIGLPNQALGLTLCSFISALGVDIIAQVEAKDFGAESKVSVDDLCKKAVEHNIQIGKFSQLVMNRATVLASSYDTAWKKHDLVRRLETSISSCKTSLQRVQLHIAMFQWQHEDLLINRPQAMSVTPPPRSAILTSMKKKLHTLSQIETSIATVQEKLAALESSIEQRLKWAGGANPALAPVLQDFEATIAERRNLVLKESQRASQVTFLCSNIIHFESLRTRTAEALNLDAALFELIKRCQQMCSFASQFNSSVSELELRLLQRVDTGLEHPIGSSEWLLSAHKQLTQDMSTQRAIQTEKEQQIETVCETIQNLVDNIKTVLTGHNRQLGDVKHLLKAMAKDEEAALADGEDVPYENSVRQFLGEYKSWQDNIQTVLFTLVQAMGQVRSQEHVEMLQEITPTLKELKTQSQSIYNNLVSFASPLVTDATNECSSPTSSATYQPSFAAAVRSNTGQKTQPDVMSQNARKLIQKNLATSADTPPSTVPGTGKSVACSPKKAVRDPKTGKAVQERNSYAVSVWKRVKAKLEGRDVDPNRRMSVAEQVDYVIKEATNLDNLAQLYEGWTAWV

Row | SMILES | IC50 (human SMG-1 (hSMG-1)) [nM] | IC50 (Human mTOR; read-out: TOR Kinase IC50) [nM] | IC50 (Human mTOR) [nM] | IC50 (PI3K-alpha) [nM] | IC50 (PI3K-gamma) [nM]
1 | Cn1ccc2c3nc(-c4ccc(NC(=O)NC5CCC5)cc4)nc(N4CCOCC4)c3ccc21 [Example 106, 1-cyclobutyl-3-[4-(7-methyl-4-morpholin-4-yl-7H-pyrrolo[2,3-h]quinazolin-2-yl)phenyl]urea] | 16500 | 1500 | – | – | –
2 | Cn1ccc2c3nc(-c4ccc(NC(=O)NCCF)cc4)nc(N4CCOCC4)c3ccc21 [Example 118, 1-(2-fluoroethyl)-3-[4-(7-methyl-4-morpholin-4-yl-7H-pyrrolo[2,3-h]quinazolin-2-yl)phenyl]urea] | 15000 | 625 | – | – | –
3 | CCCOC(=O)Nc1ccc(-c2nc(N3CCOCC3)c3ccc4c(ccn4S(C)(=O)=O)c3n2)cc1 [Example 109, propyl {4-[7-(methylsulfonyl)-4-morpholin-4-yl-7H-pyrrolo[2,3-h]quinazolin-2-yl]phenyl}carbamate] | > 20000 | 2050 | – | – | –
4 | Cn1ccc2c3nc(-c4ccc(NC(=O)NC5CCCC5)cc4)nc(N4CCOCC4)c3ccc21 [Example 105, 1-cyclopentyl-3-[4-(7-methyl-4-morpholin-4-yl-7H-pyrrolo[2,3-h]quinazolin-2-yl)phenyl]urea] | > 20000 | 2050 | – | – | –
5 | CCOC(=O)Nc1ccc(-c2nc(N3CCOCC3)c3ccc4c(ccn4S(C)(=O)=O)c3n2)cc1 [Example 86, ethyl {4-[7-(methylsulfonyl)-4-morpholin-4-yl-7H-pyrrolo[2,3-h]quinazolin-2-yl]phenyl}carbamate] | 15500 | – | – | – | –
6 | CC(=O)Nc1ccc(-c2nc(N3CCOCC3)c3ccc4c(ccn4CCN(C)C)c3n2)cc1 [Example 112, N-(4-{7-[2-(dimethylamino)ethyl]-4-morpholin-4-yl-7H-pyrrolo[2,3-h]quinazolin-2-yl}phenyl)acetamide] | > 20000 | 2800 | – | – | –
7 | Cc1noc(C)c1NC(=O)Nc1ccc(-c2nc(N3CCOCC3)c3ccc4c(ccn4C)c3n2)cc1 [Example 116, 1-(3,5-dimethylisoxazol-4-yl)-3-[4-(7-methyl-4-morpholin-4-yl-7H-pyrrolo[2,3-h]quinazolin-2-yl)phenyl]urea] | > 20000 | 1270 | – | – | –
8 | COC(=O)Nc1ccc(-c2nc(N3CCOCC3)c3ccc4c(ccn4CCN(C)C)c3n2)cc1 [Example 98, methyl (4-{7-[2-(dimethylamino)ethyl]-4-morpholin-4-yl-7H-pyrrolo[2,3-h]quinazolin-2-yl}phenyl)carbamate] | > 20000 | 2000 | – | – | –
9 | CCC(=O)Nc1cccc(-c2nc(N3CCOCC3)c3ccc4c(ccn4C)c3n2)c1 [Example 129, N-[3-(7-methyl-4-morpholin-4-yl-7H-pyrrolo[2,3-h]quinazolin-2-yl)phenyl]propanamide] | > 20000 | 1500 | – | – | –
10 | CN(C)CCn1ccc2c3nc(-c4ccc(NC(=O)C5CC5)cc4)nc(N4CCOCC4)c3ccc21 [Example 96, N-(4-{7-[2-(dimethylamino)ethyl]-4-morpholin-4-yl-7H-pyrrolo[2,3-h]quinazolin-2-yl}phenyl)cyclopropanecarboxamide] | > 20000 | 5250 | – | – | –
11 | CCOC(=O)Nc1cccc(-c2nc(N3CCOCC3)c3ccc4c(ccn4C)c3n2)c1 [Example 124, ethyl [3-(7-methyl-4-morpholin-4-yl-7H-pyrrolo[2,3-h]quinazolin-2-yl)phenyl]carbamate] | > 20000 | 1900 | – | – | –
12 | COCCNC(=O)Nc1ccc(-c2nc(N3CCOCC3)c3ccc4c(ccn4C)c3n2)cc1 [Example 101, 1-(2-methoxyethyl)-3-[4-(7-methyl-4-morpholin-4-yl-7H-pyrrolo[2,3-h]quinazolin-2-yl)phenyl]urea] | > 20000 | 1800 | – | – | –
13 | Cn1ccc2c3nc(-c4ccc(NC(=O)NCC5CCCO5)cc4)nc(N4CCOCC4)c3ccc21 (stereo not drawn) [Example 102, 1-[4-(7-methyl-4-morpholin-4-yl-7H-pyrrolo[2,3-h]quinazolin-2-yl)phenyl]-3-(tetrahydrofuran-2-ylmethyl)urea] | > 17000 | 1500 | – | – | –
14 | Cn1ccc2c3nc(-c4ccc(NC(=O)NC5CCS(=O)(=O)C5)cc4)nc(N4CCOCC4)c3ccc21 (stereo not drawn) [Example 117, 1-(1,1-dioxidotetrahydrothiophen-3-yl)-3-[4-(7-methyl-4-morpholin-4-yl-7H-pyrrolo[2,3-h]quinazolin-2-yl)phenyl]urea] | > 20000 | 600 | – | – | –
15 | CCOC(=O)Nc1ccc(-c2nc(N3CCOCC3)c3ccc4c(ccn4CCN(C)C)c3n2)cc1 [Example 93, ethyl (4-{7-[2-(dimethylamino)ethyl]-4-morpholin-4-yl-7H-pyrrolo[2,3-h]quinazolin-2-yl}phenyl)carbamate] | > 20000 | – | – | – | –
16 | CCCC(=O)Nc1ccc(-c2nc(N3CCOCC3)c3ccc4c(ccn4S(C)(=O)=O)c3n2)cc1 [Example 88, N-{4-[7-(methylsulfonyl)-4-morpholin-4-yl-7H-pyrrolo[2,3-h]quinazolin-2-yl]phenyl}butanamide] | > 20000 | – | – | – | –
17 | Nc1ncc(-c2nc(N3CCOCC3)c3ccc4c(ccn4S(=O)(=O)c4ccccc4)c3n2)cn1 [Example 71, 5-[4-morpholin-4-yl-7-(phenylsulfonyl)-7H-pyrrolo[2,3-h]quinazolin-2-yl]pyrimidin-2-amine] | – | 545 | – | 52 | 114
18 | CS(=O)(=O)n1ccc2c3nc(-c4cncc(O)c4)nc(N4CCOCC4)c3ccc21 [Example 76, 5-[7-(methylsulfonyl)-4-morpholin-4-yl-7H-pyrrolo[2,3-h]quinazolin-2-yl]pyridin-3-ol] | – | 130 | – | 65 | 82
19 | Cn1ccc2c3nc(-c4ccc(NC(=O)c5cccnc5)cc4)nc(N4CCOCC4)c3ccc21 [Example 17, N-[4-(7-methyl-4-morpholin-4-yl-7H-pyrrolo[2,3-h]quinazolin-2-yl)phenyl]nicotinamide] | – | 1400 | – | > 10000 | 9850

Results, then the compound that gave them:

Row | IC50 (human SMG-1 (hSMG-1)) [nM] | IC50 (Human mTOR; read-out: TOR Kinase IC50) [nM] | IC50 (Human mTOR) [nM] | IC50 (PI3K-alpha) [nM] | IC50 (PI3K-gamma) [nM] | SMILES
20 | 6500 | – | – | – | – | Cn1ccc2c3nc(-c4cccc(NC(=O)Nc5ccncc5)c4)nc(N4CCOCC4)c3ccc21 [Example 122, 1-[3-(7-methyl-4-morpholin-4-yl-7H-pyrrolo[2,3-h]quinazolin-2-yl)phenyl]-3-pyridin-4-ylurea]
21 | 5250 | – | – | – | – | CC(=O)Nc1ccc(-c2nc(N3CCOCC3)c3ccc4c(ccn4S(C)(=O)=O)c3n2)cc1 [Example 92, N-{4-[7-(methylsulfonyl)-4-morpholin-4-yl-7H-pyrrolo[2,3-h]quinazolin-2-yl]phenyl}acetamide]
22 | 5600 | – | – | – | – | COC(=O)Nc1ccc(-c2nc(N3CCOCC3)c3ccc4c(ccn4S(C)(=O)=O)c3n2)cc1 [Example 90, methyl {4-[7-(methylsulfonyl)-4-morpholin-4-yl-7H-pyrrolo[2,3-h]quinazolin-2-yl]phenyl}carbamate]
23 | 2000 | – | – | – | – | CCNC(=O)Nc1ccc(-c2nc(N3CCOCC3)c3ccc4c(ccn4CCN(C)C)c3n2)cc1 [Example 94, 1-(4-{7-[2-(dimethylamino)ethyl]-4-morpholin-4-yl-7H-pyrrolo[2,3-h]quinazolin-2-yl}phenyl)-3-ethylurea]
24 | 475 | – | – | – | – | CS(=O)(=O)n1ccc2c3nc(-c4ccc(NC(=O)Nc5ccccc5)cc4)nc(N4CCOCC4)c3ccc21 [Example 84, 1-{4-[7-(methylsulfonyl)-4-morpholin-4-yl-7H-pyrrolo[2,3-h]quinazolin-2-yl]phenyl}-3-phenylurea]
25 | 14500 | 215 | – | – | – | CC(C)NC(=O)Nc1ccc(-c2nc(N3CCOCC3)c3ccc4c(ccn4C)c3n2)cc1 [Example 99, 1-(1-methylethyl)-3-[4-(7-methyl-4-morpholin-4-yl-7H-pyrrolo[2,3-h]quinazolin-2-yl)phenyl]urea]
26 | 6500 | 1260 | – | – | – | Cn1ccc2c3nc(-c4ccc(NC(=O)NCC(F)(F)F)cc4)nc(N4CCOCC4)c3ccc21 [Example 119, 1-[4-(7-methyl-4-morpholin-4-yl-7H-pyrrolo[2,3-h]quinazolin-2-yl)phenyl]-3-(2,2,2-trifluoroethyl)urea]
27 | 6100 | – | – | – | – | CCC(=O)Nc1ccc(-c2nc(N3CCOCC3)c3ccc4c(ccn4S(C)(=O)=O)c3n2)cc1 [Example 91, N-{4-[7-(methylsulfonyl)-4-morpholin-4-yl-7H-pyrrolo[2,3-h]quinazolin-2-yl]phenyl}propanamide]
28 | 3300 | 625 | – | – | – | Cn1ccc2c3nc(-c4ccc(NC(=O)NCCc5ccncc5)cc4)nc(N4CCOCC4)c3ccc21 [Example 120, 1-[4-(7-methyl-4-morpholin-4-yl-7H-pyrrolo[2,3-h]quinazolin-2-yl)phenyl]-3-(2-pyridin-4-ylethyl)urea]
29 | 10500 | – | 5550 | – | – | CC(=O)c1cccc(NC(=O)Nc2ccc(-c3nc(N4CCOCC4)c4ccc5c(ccn5C)c4n3)cc2)c1 [Example 114, 1-(3-acetylphenyl)-3-[4-(7-methyl-4-morpholin-4-yl-7H-pyrrolo[2,3-h]quinazolin-2-yl)phenyl]urea]
30 | 1800 | 50 | – | – | – | CN(C)CCn1ccc2c3nc(-c4ccc(NC(=O)Nc5ccccc5)cc4)nc(N4CCOCC4)c3ccc21 [Example 95, 1-(4-{7-[2-(dimethylamino)ethyl]-4-morpholin-4-yl-7H-pyrrolo[2,3-h]quinazolin-2-yl}phenyl)-3-phenylurea]
31 | 4250 | 470 | – | – | – | CC(=O)c1ccc(NC(=O)Nc2ccc(-c3nc(N4CCOCC4)c4ccc5c(ccn5C)c4n3)cc2)cc1 [Example 115, 1-(4-acetylphenyl)-3-[4-(7-methyl-4-morpholin-4-yl-7H-pyrrolo[2,3-h]quinazolin-2-yl)phenyl]urea]
32 | 5600 | – | – | – | – | CS(=O)(=O)n1ccc2c3nc(-c4ccc(NC(=O)C5CC5)cc4)nc(N4CCOCC4)c3ccc21 [Example 87, N-{4-[7-(methylsulfonyl)-4-morpholin-4-yl-7H-pyrrolo[2,3-h]quinazolin-2-yl]phenyl}cyclopropanecarboxamide]
